Assay results as given in patent US11369593B2 (Texas Tech University System, priority 2017, dated 2022).

Experiments:
PC12 cells [1] = test: Etoposide-induced apoptosis in PC12 cells, cell viability; type: cell-based; conditions: for viability at 1 µM / viability at 3 µM / viability at 10 µM / viability at 30 µM / viability at 0.1 µM / viability at 0.3 µM: Rattus norvegicus, PC-12; for viability at 1 µM: read-out: % Viability 1 μM; for viability at 3 µM: read-out: % Viability 3 μM; for viability at 10 µM: read-out: % Viability 10 μM; for viability at 30 µM: read-out: % Viability 30 μM; for viability at 0.1 µM: 0.1 μM compound, vehicle 52.1 ± 7.32; for viability at 0.3 µM: 0.3 μM compound
PC12 cells [2] = test: Serum starvation-induced apoptosis in PC12 cells, cell viability; type: cell-based; conditions: serum starvation-induced apoptosis, PC12 cells; for viability at 1 µM / viability at 3 µM / viability at 10 µM / viability at 30 µM: Rattus norvegicus, PC-12; for viability at 1 µM: read-out: % Viability 1 μM; for viability at 3 µM: read-out: % Viability 3 μM; for viability at 10 µM: read-out: % Viability 10 μM; for viability at 30 µM: read-out: % Viability 30 μM
[3] = 1 μM compound, etoposide-induced apoptosis, PC12 cells
[4] = 3 μM compound, etoposide-induced apoptosis, PC12 cells
[5] = 10 μM compound, etoposide-induced apoptosis, PC12 cells
[6] = 30 μM compound, etoposide-induced apoptosis, PC12 cells
[7] = 1 μM compound, vehicle 55.04 ± 8.99
[8] = etoposide-induced apoptosis, PC12 cells

| Molecule | viability at 1 µM (PC12 cells [1]; [3]) [%] | viability at 3 µM (PC12 cells [1]; [4]) [%] | viability at 10 µM (PC12 cells [1]; [5]) [%] | viability at 30 µM (PC12 cells [1]; [6]) [%] | viability at 0.1 µM (PC12 cells [1]; [8]) [%] | viability at 0.3 µM (PC12 cells [1]; [8]) [%] | other results |
| --- | --- | --- | --- | --- | --- | --- | --- |
| CC(Cl)OC(=O)Nc1ccc(NCc2ccc(F)cc2)nc1N (centres unmarked) [NK-21-1, 1-chloroethyl 6-(4-fluorobenzylamino)-2-aminopyridin-3-ylcarbamate] | 69.5 ± 13.2 | 88.9 ± 21.5 | 84.3 ± 32.2 | 84.8 ± 33.7 |  |  | viability at 1 µM (PC12 cells [2]; [7]): 74.2 ± 11.5%; viability at 3 µM (PC12 cells [2]; 3 μM compound): 75.6 ± 13.4%; viability at 10 µM (PC12 cells [2]; 10 μM compound): 91.7 ± 6.31%; viability at 30 µM (PC12 cells [2]; 30 μM compound): 84 ± 13.8% |
| Nc1nc(NCc2ccc(F)cc2)ccc1NC(=O)OCC(Cl)(Cl)Cl [NK-46-1, 2,2,2-trichloroethyl (2-amino-6-((4-fluorobenzyl)amino)pyridin-3-yl)carbamate] | 94.9 ± 8.18 | 77.2 ± 8.19 | 83.9 ± 18 | 113 ± 3.53 | 74.1 ± 9.21 | 108 ± 12.7 |  |
| 2-chloroethyl 6-(4-fluorobenzylamino)-2-aminopyridin-3-ylcarbamate [NK-23-1] |  |  |  |  |  |  | % Viability 1 μM (PC12 cells [1]; [3]): 54.01 ± 13.43%; % Viability 3 μM (PC12 cells [1]; [4]): 53.92 ± 6.37%; % Viability 10 μM (PC12 cells [1]; [5]): 41.79 ± 4.38%; % Viability 30 μM (PC12 cells [1]; [6]): 40.77 ± 6.98%; % Viability 1 μM (PC12 cells [2]; [7]): 84.07 ± 11.85%; % Viability 3 μM (PC12 cells [2]; 3 μM compound): 83.62 ± 5.88%; % Viability 10 μM (PC12 cells [2]; 10 μM compound): 100.15 ± 15.84%; % Viability 30 μM (PC12 cells [2]; 30 μM compound): 106.47 ± 15.46% |
| CCOC(=O)Nc1ccc(NCc2ccc(SC(F)(F)F)cc2)nc1N [AM-8-3, Ethyl (2-amino-6-((4-((trifluoromethyl)thio)benzyl)amino)pyridin-3-yl)carbamate] | 82.3 ± 7.02 | 79.2 ± 23.6 | 89.1 ± 2.16 | 110 ± 15.3 | 69 ± 9.99 | 92.6 ± 9.23 |  |
| CCOC(=O)Nc1ccc(NCc2ccc(-c3ccccc3)cc2)nc1N [NK-57-3, Ethyl (6-(([1,1′-biphenyl]-4-ylmethyl)amino)-2-aminopyridin-3-yl)carbamate] | 63.7 ± 10.1 | 48.9 ± 9.58 | 53.1 ± 14 | 62.3 ± 10.3 | 55.4 ± 14.8 | 61.7 ± 12.7 |  |
| C#CCOC(=O)Nc1ccc(NCc2ccc(F)cc2)nc1N [NK-45-1, Prop-2-yn-1-yl (2-amino-6-((4-fluorobenzyl)amino)pyridin-3-yl)carbamate] | 64.9 ± 11.7 | 61.9 ± 9.82 | 65.4 ± 10.7 | 64.8 ± 3.9 | 60.4 ± 1.29 | 57.5 ± 3.95 |  |
| Nc1nc(NCc2ccc(F)cc2)ccc1NC(=O)OCC1c2ccccc2-c2ccccc21 [NK-43-1, (9H-fluoren-9-yl)methyl (2-amino-6-((4-fluorobenzyl)amino)pyridin-3-yl)carbamate] | 69 ± 10.3 | 56.4 ± 8.99 | 66.7 ± 5.97 | 49.7 ± 1.76 | 67.5 ± 6.34 | 63.9 ± 6.2 |  |
| CCOC(=O)Nc1ccc(N2CCOCC2)nc1N [JG-41-4, Ethyl (2-amino-6-morpholinopyridin-3-yl)carbamate] | 85.8 ± 15.5 | 88.7 ± 13.5 | 78.9 ± 14.3 | 63.9 ± 12.4 |  |  |  |
| C=CCOC(=O)Nc1ccc(NCc2cccc(C(F)(F)F)c2)nc1N [NK-16-6, Allyl 6-(3-(trifluoromethyl)benzylamino)-2-aminopyridin-3-ylcarbamate] | 78 ± 37.1 | 107 ± 2.3 | 101 ± 9.58 | 87.6 ± 21.9 |  |  | protective activity in WT PC12 etoposide assay (PC12 cells [1]; WT PC12 cells, etoposide): provides greater activity; viability at 1 µM (PC12 cells [2]; [7]): 77.1 ± 12.1%; viability at 3 µM (PC12 cells [2]; 3 μM compound): 87.8 ± 10%; viability at 10 µM (PC12 cells [2]; 10 μM compound): 92 ± 13%; viability at 30 µM (PC12 cells [2]; 30 μM compound): 74.5 ± 11.9% |
| CCOC(=O)Nc1ccc(NCc2ccc(OC(F)(F)F)cc2)nc1N [JG-33-4, Ethyl (2-amino-6-((4-(trifluoromethoxy)benzyl)amino)pyridin-3-yl)carbamate] | 79.8 ± 12.8 | 95.3 ± 14.6 | 88.9 ± 12.6 | 82.4 ± 12.6 | 71.3 ± 16.1 | 81.6 ± 10.9 |  |
| CCOC(=O)Nc1ccc(NCc2ccc(C)cc2C)nc1N [NK-65-3, Ethyl (2-amino-6-((2,4-dimethylbenzyl)amino)pyridin-3-yl)carbamate] | 61.8 ± 9.82 | 87.9 ± 11.4 | 85.7 ± 13.2 | 65.7 ± 19 | 55.5 ± 11.3 | 56.9 ± 18.4 |  |
